These results are taken from patent US4059692A, “Treating impaired consciousness with glutamyl-L-histidyl-L-prolinamide” (Takeda Chemical Industries, Ltd., priority 1975, dated 1977).

Counter-ions that a name gives are not always drawn.

The series has as its system human patient with impaired consciousness due to functional or organic damage of the brain. The series can be described thus: Clinical administration of TRH tartrate to human patients with impaired consciousness (case reports 1-8). The class given is in vivo. To be noted: for motor/behavioural recovery: 200 μg free TRH i.m. daily. From the text: The method of the present invention is applicable to human patients with impaired consciousness due to functional or organic damage to the brain, such as cranial trauma, brain surgery, cerebrovascular disorder, brain tumors and the like.
According to the present invention, TRH may be employed as the free base or in the form of a physiologically acceptable salt such as an acid addition salt e.g. a mineral acid salt (hydrochloride, sulphate, etc.) or an organic acid salt (acetate, tartrate, etc.). TRH tartrate is especially convenient for the administration. TRH or its salts are generally administered by the parenteral routes such as intravenous or intramuscular routes to the patients. The therapeutic dosage depends upon the route and upon the severity of impaired consciousness in each patient, and it may generally be chosen from within the range of from about 100 to about 5,000 μg. in terms of free TRH per adult human patient per day, more particularly from about 500 to about 5,000 μg. in terms of free TRH per adult human patient per day, when parenterally e.g. intravenously or intramuscularly administered. In case of those patients having swallowing capacity TRH or its salts may be orally administered. In this case, the dosage may be of course chosen from within the abovementioned range, but it may be increased over the said range, for example, up to about 150 mg. in terms of free TRH per adult human patient per day.
Child: Postoperative state of haematoma of right frontal lobe caused by cranial trauma.
Before administration, the patient was able to respond to only painful stimuli with a verbal expression of pain, otherwise being unconcious with a slight palpebral opening. Such conscious state lasted without modification for a further 10 days. The daily intramuscular injection of 292 μg. of TRH tartrate (dissolved in 0.8 ml of a sterile physiological saline; 200 μg. in terms of free TRH) successively for 10 days.
person: Postoperative state of metastatic brain tumor on right frontal and pariental lobes.
Craniotomy performed for the reduction of the intracranial pressure was followed by the gradual deterioration of consciousness. Therefore, TRH tartrate in the daily dose of 730 μg. (dissolved in 20 ml of 20% glucose; 500 μg. in terms of free TRH) was administered by intravenous drip infusion of 13 days.
Child: Brain contusion due to cranial trauma.
The child suffered from bodily contusion and loss of consciousness by collision on their bicycle with a train. At the time of hospitalization, the bilateral facilitation of the knee-jerk reflex was associated with the positive Babinski's reflex bilaterally. The daily administration of 730 μg.
Person: Post-operative state of glioblastoma.
The surgical resection of glioblastoma by cranitomy was gradually followed by a worsening of the general condition associated with impaired consciousness for 3 months.
person: Traumatic protracted coma.
The patient had been thrown from a motor bike and disturbance of consciousness had become apparent immediately after the accident. There was movement of the extremities and grimacing of the face in response to pain stimulus. The disturbance of consciousness continued thereafter and the disturbance had become fixed for 2 years prior to medication with TRH. TRH tartrate in the daily dose of 7,300 μg. (dissolved in 200 ml of electrolyte solution; 5,000 μg. in terms of free TRH) was administered by intravenous drip infusion. […] They also began to answer friends vocally with "Ah", "Ah". […] The medication was terminated at the 10th day.
person: Aneurysm of left cerebral artery.
After an attack of subarachnoid hemorrhage, it was noted that they had lost accessibility with people around them and volition, and that they had been in an abstract state. This condition had lasted for 1 month. TRH tartrate in the daily dose of 3,650 μg. […]

Where [1] appears, read: Case 3, 500 μg free TRH i.v. drip daily for 10 days.

Consider `NC(=O)[C@@H]1CCCN1C(=O)[C@H](Cc1cnc[nH]1)NC(=O)[C@@H]1CCC(=O)N1` [TRH tartrate], for which the “state of consciousness (response to interview)” value (Case 1: postoperative haematoma of right frontal lobe, 292 μg TRH tartrate (200 μg free TRH) intramuscular daily for 10 days, 5th day of treatment) is “prompt verbal reply with a smile to the interview by the doctor”. In addition, the motor/behavioural recovery entry by setting is: (Case 1, 7th day) “able to ride and sit by themself on a wheel-chair”; (Case 1, 8th day (the next day)) “able to go to a stool with support”. In addition, the “motor/behavioural recovery and conversation” value (Case 1, one day after termination of the 10-day daily administration) is “able to sit by themself on the bed and to have a conversation with others”. Moreover, the conscious state entry (Case 2: postoperative metastatic brain tumor, 730 μg TRH tartrate (500 μg free TRH) intravenous drip infusion daily, 13 days, 2nd day) was “significant improvement of the conscious state”. In addition, where the note is “Case 2, 500 μg free TRH i.v. drip daily, 2nd day”, the orientation ability entry was “improvement of orientation ability”. Further, the “persistence of improved conscious state” value (Case 2, after termination of the TRH treatment) was “persist for about one month after the termination of the TRH treatment”. Moreover, the “Babinski's reflex” value by setting is: (Case 3: brain contusion, 730 μg TRH tartrate (500 μg free TRH) i.v. drip daily for 10 days, 2nd day) “sluggish appearance of Babinski's reflex”; (Case 3, 500 μg free TRH i.v. drip daily, 3rd day) “disappearance on the 3rd day”. The impaired consciousness result under setting [1] is recorded as “began to be improved from the 4th day”. In addition, the impaired orientation result under setting [1] is “markedly improved”. Moreover, the final outcome (Case 3, after treatment) was “recovered without any neurological abnormality”. In addition, where the note is “Case 3, one day after termination of the daily administration”, the motor recovery entry is on record as “able to walk”. Moreover, for the setting “Case 4: post-operative glioblastoma, 1,460 μg TRH tartrate (1,000 μg free TRH) i.v. drip daily for 10 days”, the “palpebral opening and eyeball movement” value is listed as “prolonged the time-length of the palpebral opening from the 4th day”. Further, the consciousness result (Case 4, 1,000 μg free TRH i.v. drip daily for 10 days) is “remarkable improvement of the consciousness”. Moreover, for the setting “Case 5: traumatic protracted coma fixed for 2 years, 7,300 μg TRH tartrate (5,000 μg free TRH) i.v. drip daily, two days after start”, the “response to vocal questioning” value is “began to respond with a sound to vocal questioning and turn the eyes towards the questioner”. Further, the side effects entry is on record as “No side effects were observed” (Case 5, 5,000 μg free TRH i.v. drip daily, 10 days treatment period); “No noteworthy side effects were observed” (Case 6, 2,500 μg free TRH i.v. drip daily for 10 days); “No side effects were noted” (Case 7, 6 mg free TRH orally daily for 2 weeks); “No side effects have been observed” (Case 8, 12 mg free TRH orally daily, during and after termination of medication). In addition, under “Case 5, 5,000 μg free TRH i.v. drip daily, from about the fifth day”, the level of consciousness result is given as “definite improvement in the level of consciousness”. The abstract state entry (Case 6: aneurysm of left cerebral artery, subarachnoid hemorrhage, 3,650 μg TRH tartrate (2,500 μg free TRH) i.v. drip daily for 10 days, third day) is reported as “abstract state disappeared”. The state of consciousness result (Case 6, 2,500 μg free TRH i.v. drip daily, seventh day) is on record as “restored close to normal”. Also, the “behavior and spontaneous activity” value (Case 7: sequelae of head trauma, 8.76 mg TRH tartrate (6 mg free TRH) orally daily for 2 weeks, from the third day) is “normalization of behavior and spontaneous activity”. Also, the conversation with people result (Case 7, 6 mg free TRH orally daily, after 1 week) was “began to actively converse with people around them”. For the same compound, the “persistence of improvement in level of consciousness” value (Case 7, after medication was terminated at 2 weeks) is reported as “improvement in the level of consciousness was retained”. For the setting “Case 8: sequelae of head trauma, 17.52 mg TRH tartrate (12 mg free TRH) orally daily, after 2 weeks”, the “spontaneous activity / volition” value is recorded as “began to actively watch television or play the pinball machine”. The agnosia and disorientation entry (Case 8, 12 mg free TRH orally daily, after 2 weeks) was “little change in the agnosia and disorientation”. The “condition after termination of medication” value (Case 8, medication terminated after 2 weeks, after 3 months) is recorded as “no marked change in the condition of the patient”.

On to `NC(=O)[C@@H]1CCCN1C(=O)[C@H](Cc1c[nH]cn1)NC(=O)[C@@H]1CCC(=O)N1` [TRH, L-pyroglutamyl-L-histidyl-L-prolinamide], for which the “impaired consciousness (overall)” value (Case 5, 5,000 μg (free TRH) per day, case had not responded to conventional treatment) is listed as “significant improvement of impaired consciousness”.
